In one experiment the target is T1, MrgprC11 (Mus musculus, UniProt Q8CIP3).
T1 sequence (Q8CIP3 1-322): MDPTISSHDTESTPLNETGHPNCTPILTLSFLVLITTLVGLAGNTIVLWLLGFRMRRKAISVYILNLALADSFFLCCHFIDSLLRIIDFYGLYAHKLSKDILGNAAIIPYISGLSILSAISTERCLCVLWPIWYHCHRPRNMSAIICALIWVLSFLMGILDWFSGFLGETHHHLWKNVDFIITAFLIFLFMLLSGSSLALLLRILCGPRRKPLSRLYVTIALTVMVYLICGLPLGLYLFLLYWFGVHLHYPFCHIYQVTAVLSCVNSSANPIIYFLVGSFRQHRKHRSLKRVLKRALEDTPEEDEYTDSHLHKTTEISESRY
In kind it is cell-based.

In a further experiment the target is human MrgprX1 (hMrgprX1) (Homo sapiens, UniProt Q96LB2). Put plainly: cell-based. In kind it is cell-based.
For experiment [1], the system named is hMrgprX1;Mrgpr-cluster∆−/− transgenic mouse. Conditions: in vivo.
The next experiment deals with mice. Conditions: mouse, in vivo; cited from earlier work.

“Also recorded” adds a separate entry of the source. No end group written: not given here.

The EC50 is the concentration at which the effect is half-maximal. Lower therefore signals higher potency in that assay.

human MrgprX1 (hMrgprX1), sequence (Q96LB2 whole entry, looked up): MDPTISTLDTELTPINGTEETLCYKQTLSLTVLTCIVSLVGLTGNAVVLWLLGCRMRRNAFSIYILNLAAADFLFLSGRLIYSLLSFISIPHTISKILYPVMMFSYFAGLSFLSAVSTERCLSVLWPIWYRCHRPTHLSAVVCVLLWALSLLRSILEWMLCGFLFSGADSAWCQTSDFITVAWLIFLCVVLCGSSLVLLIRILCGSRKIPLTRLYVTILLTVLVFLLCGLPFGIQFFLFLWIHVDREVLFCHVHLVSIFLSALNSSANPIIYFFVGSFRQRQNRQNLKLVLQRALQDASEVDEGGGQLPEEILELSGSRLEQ

Regarding HSGFLLAWSGPRNRFVRF-NH2 [CNF-Vc1], the “Activation of MrgprC11” value on MrgprC11 is given as “activates”. Further, at human MrgprX1 (hMrgprX1), the “Activation of hMrgprX1” value is “activates” and the EC50 was 1800 nM. In experiment [1], the “Itch-related scratching after intradermal cheek injection of peptide” value is “induces significant scratching”. Further, the “Behaviour of mice after intracranial injection” value in the experiment with mice is given as “renders mice unable to move; also recorded: hypoactive behavior”.

These data come from article PMC6299835 (Toxicon : official journal of the International Society on …, 2018).
